Six compounds from ChEMBL document CHEMBL1151631, “Plant anticancer agents, XXXIV. Cucurbitacins from Elaeocarpus dolichostylus” (1984) can be followed below.

Converted amounts (≈) assume the structure as drawn. The source made the active and inactive calls. The rule behind the calls is not given here.

One experiment relates to L1210. Briefly: In vivo cytotoxicity against mouse L1210 cells at 300 to 400 mg/kg relative to control. The format is functional, organism-based.
The subject of a further experiment is P388. In words: Cytotoxicity against mouse P388 cells. Type of experiment: functional. As to conditions: read-out: ED50 (the source's name).
The subject of the next experiment is KB. Briefly: Cytotoxicity against human KB cells. The format is functional. The following applies: read-out: ED50 (the source's name).

With `Cc1cccc2c1C(=O)C1[C@H]3CCCN3CC[C@H]1O2` (some centres undefined), the outcome in the experiment on L1210 was inactive.

Consider `Cc1cccc2c1C(=O)[C@H]1[C@H](CCN3CCC[C@H]13)O2`, for which, in the experiment on L1210, the result was inactive.

On to `C[C@@H]1CC=CC2=C1C(=O)[C@H]1[C@H](CCN3CCC[C@H]13)O2`, for which the result in the experiment on L1210 was inactive.

`CC(C)(O)/C=C/C(=O)[C@](C)(O)[C@H]1[C@H](O)C[C@@]2(C)[C@@H]3CC=C4[C@@H](C[C@H](O)[C@@H](O)C4(C)C)[C@]3(C)C(=O)C[C@]12C` [CUCURBITACIN F]: the EC50 was 0.04 µg/mL (≈ 0.0771 µM) in the experiment on P388 and 0.074 µg/mL (≈ 0.143 µM) with KB.

For the compound `CC(=O)[C@H]1[C@H](O)C[C@@]2(C)[C@@H]3CC=C4[C@@H](C[C@H](O)[C@@H](O)C4(C)C)[C@]3(C)C(=O)C[C@]12C` [HEXANORCUCURBITACIN F], the EC50 in the experiment on P388 and with KB was > 50 µg/mL in each case.

Turning to `CC(C)(O)CCC(=O)[C@](C)(O)[C@H]1[C@H](O)C[C@@]2(C)[C@@H]3CC=C4[C@@H](C[C@H](O)[C@@H](O)C4(C)C)[C@]3(C)C(=O)C[C@]12C`, the EC50 with P388 and in the experiment with KB was > 50 µg/mL throughout.
